Patent US20050142534A1, “Methods and compositions related to a matrix chip” (priority 2003, published 2005)

Legend:
Assay type in all cases: cell-based
[1] = tested on: normal vasculogenic endothelial cells; assay: Formation of vasculogenic cords by normal endothelial cells on matrix; conditions: normal endothelial cells on thin and thick matrix; agent added to the culture medium
Excerpt: With the specific exception of normal vasculogenic endothelial cells, normal cells and cancer cells of low invasive potential form clusters containing small numbers of cells when grown to less than confluent density on serum proteins absorbed to a solid support or on layers of extracellular matrix ranging from less than 50 microns to over 1000 microns in thickness. […] Normal vasculogenic […] cells grown to confluent density on absorbed serum proteins form characteristic “cobblestone” monolayers. These normal endothelial cells form distinctive cord-like structures when grown on thin matrix and networks of these cords when grown on thick matrix. The formation of these vasculogenic cords, which are known to be precursors to the formation of blood vessels, is prevented by the addition of anti-angiogenic agents such as the drug TNP-470 (a derivative of flimagillin) to the culture medium.

[2] = tested on: normal cells and abnormal cells; assay: Inverted slide-based nuclease digestion test with thiol reagent; conditions: thiol reagent added to the treatment solution
Method: Certain embodiments of the invention include a slide-based test. One example of a slide based test includes obtaining a test sample, (e.g., scraping cells off of their culture plates); suspending the sample in phosphate buffered saline (PBS); administering a drop of the cell suspension on a laminin coated slide. The sample administered to the coated slide is allowed to air dry (about 15 minutes). The dried slide is subjected to digestion with ALU (about 15 minutes). After digestion the slide is stained with ethidium bromide (1 minute) and imaged under fluorescence. Aside from being fast, this method is an improvement on standard “smear” methods (like Pap tests) in that it is insensitive to the air-drying artifacts that cause major problems with the standard methods and necessitate using preservatives and fixatives. An alternative sampling technique includes depositing cells by contacting the slide with a tissue block.
Thus, the result of the method is inverted. Inversion of the test can be produced by adding a thiol reagent such as DTT to the treatment solution.

[3] = tested on: tumor cells grown on thin matrix; assay: Labeling of nuclei of tumor cells grown on thin matrix by DNA-binding agents
Excerpt: Rather, they form clusters or sheets of cells with no evidence of the formation of perfusion channels. […] […] These and other similar experiments reveal that polar agents such as bisbenzimide and doxorubicin are systematically excluded from the cells comprising tumor nests while these cells are accessible to neutral molecules of similar molecular weights.

[4] = tested on: invasive tumor cells forming tumor nests; assay: Labeling of nuclei of invasive tumor cells in tumor nests on thick matrix by DNA-binding agents; conditions: even after prolonged exposure
Excerpt: Rather, they form clusters or sheets of cells with no evidence of the formation of perfusion channels. […] Invasive tumor cells grown in vitro on thick matrix and stained by the addition of bisbenzimide to the culture medium show staining restricted to the nuclei of the cells on the peripheries of the individual cell clusters forming the tumor nest. These and other similar experiments reveal that polar agents such as bisbenzimide and doxorubicin are systematically excluded from the cells comprising tumor nests while these cells are accessible to neutral molecules of similar molecular weights.

tumor nest = assay: Perfusion of tumor nests by neutral fluorescent dyes and dextran conjugates; conditions: microinjected into a sinusoid of a tumor nest; fluorescence microscopy
Excerpt: Invasive tumor cells grown on thick layers of extracellular matrix protein form tumor nests in vitro and can be used as model systems for the evaluation of the efficacy of anti-cancer drugs against similar structures in vivo. Fluorescence microscopy images of a fluorescent dye Texas Red microinjected into a sinusoid of a tumor nest will typically show the movement of the dye into the perfusion channels between clumps of tumor cells in the tumor nest. […] This same pattern of perfusion is evident when neutral fluorescent dyes are applied to tissues or layers of matrix proteins containing tumor nests rather than being injected into the nests.

Compound | labeling of nuclei [3] | labeling of nuclei [4] | also measured
CO[C@@H]1[C@H](OC(=O)NC(=O)CCl)CC[C@]2(CO2)[C@H]1[C@@]1(C)O[C@@H]1CC=C(C)C [TNP-470] |  |  | formation of vasculogenic cords [1]: prevented
O[C@@H](CS)[C@@H](O)CS [DTT] |  |  | effect on result of nuclease digestion test [2]: normal cells remain intact and the abnormal cells are degraded
CN1CCN(c2ccc3[nH]c(-c4ccc5[nH]c(-c6ccc(O)cc6)nc5c4)nc3c2)CC1 [bisbenzimide] | rapidly and efficiently labeled | only the nuclei of cells on the peripheries of the tumor cell clusters forming the nests are labeled | 
COc1cccc2c1C(=O)c1c(O)c3c(c(O)c1C2=O)C[C@@](O)(C(=O)CO)C[C@@H]3O[C@H]1C[C@H](N)[C@H](O)[C@H](C)O1 [doxorubicin] | rapidly and efficiently labeled | only the nuclei of cells on the peripheries of the tumor cell clusters forming the nests are labeled | 
Texas Red |  |  | movement of dye into perfusion channels of tumor nest (tumor nest): the tumor nest is permeated by the dye
